From patent US20130071897A1, “METHOD FOR CONTROLLING UNDESIRABLE BYPRODUCTS FORMATION CAUSED BY CONTAMINATING ORGANISMS IN THE PRODUCTION OF ETHANOL FROM SYNGAS” (COSKATA, INC., priority 2011, published 2013)
Several values for one entry are separate records, joined by “and”; a condition that tells them apart may be missing. Equal entries are not always repeated.

Experiments:
C. autoethanogenum [1] = assay: Balch tube batch growth of homoacetogen C. autoethanogenum on fructose, optical density; format: cell-based; details: added 21 h after inoculation
Method: These compounds were first tested to determine their effect on a known homoacetogen. Each compound was tested in a series of batch experiments to determine the growth response of a homoacetogen to the presence of the compound at varying concentrations. The batch experiments were all conducted by anoxically filling a Balch tube with 5 ml of a fermentation medium having the composition given in Tables 2 and 3. To expedite results, these batch experiments used fructose as the growth nutrient source for bacteria. Thus, the media included a 5 g/L of fructose.
Each tube was inoculated with 0.5 ml of the same strain of C. autoethanogenum bacteria seed culture inoculum. The tubes were maintained at a temperature of 37° C. Twenty one hours after the inoculation of the tube with the bacteria, the different crotonate derivatives from Table 1 were added to different tubes in the amounts indicated in Table 4 This was at a time of early to mid-log phase growth for the bacteria. Each fermentation of the bacteria in the media at the different concentration of crotonate derivatives were allowed to progress and were monitored to determine the bacteria growth at selected intervals of time varying from approximately 20 hours to 190 hours. Growth at the intervals was measured by reading the optical density (OD) of the fermentation liquid. Optical density was measured using a Spectronic Spec 20 (Thermo Spectronic) at a wavelength of 600 nm. The OD of the Balch tube culture was measured directly in the tube using absorbance mode on the Spec 20 machine. The machine was set to zero absorbance by first measuring and adjusting the setting to zero absorbance using media only as a blank. This process was repeated at each indicated time point throughout the experiment. The ability of a tube fermentation at a particular concentration of crotonate derivative to reach a predetermined optical density was recorded in Table 4. Table 4 indicates the presence of bacterial growth to an OD of approximately 2 or above with a “+”, and to an optical density in a range of 0.5 to 1.5 as a “+/−”, and indicates the failure of bacterial growth to reach an optical density of approximately 0.5 as a “−”.

[2] = tested on: Clostridium tyrobutyricum; assay: Balch tube batch growth of strict butyrogen Clostridium tyrobutyricum on fructose, optical density; format: cell-based; details: added 21 h after inoculation
Method: Similar experiments were conducted to make a preliminary determination as to which of the crotonate and crotonate-like compounds would act as butyrogen retardants. For this purpose the selected compounds were tested again in a series of batch experiments to determine the growth response of butyrogens to the presence of the compound at varying concentrations. The batch experiments were all conducted by anoxically filling a 20 ml Balch tube with 5 ml of a fermentation medium having the composition given in Tables 2 and 3. The media included 0.5 v/v final concentration of a fructose substrate. For each of the crotonate concentrations tested, duplicate test tubes were prepared.
Each tube was inoculated with 0.5 ml seed culture inoculum of the strict butyrogen Clostridium tyrobutyricum. The tubes were maintained at a temperature of 37° C. Twenty one hours after the inoculation of the tube with the bacteria, the different compounds from Table 1 were added to different tubes in the amounts indicated in Table 6. This was at a time of early to mid-log phase growth for the bacteria. Each fermentation of the bacteria in the media at the different concentration of crotonate derivatives were allowed to progress and were monitored to determine the bacteria growth at selected intervals of time varying from approximately 20 hours to 54 hours. Growth at the intervals was measured by reading the optical density (OD) of the fermentation liquid. Optical density was measured as described in Example 1. The ability of a tube fermentation at a particular concentration of crotonate derivative to reach a predetermined optical density was recorded in Table 6. Table 6 indicates the presence of bacterial growth to an OD of approximately 1.8 or above with a “+”, and to an optical density in a range of 0.7 to 1.5 as a “+/−”, and indicates the failure of bacterial growth to reach an optical density of approximately 0.7 as a “−”.

acyl-CoA dehydrogenases = assay: In vitro acyl-CoA dehydrogenase ferrocenium assay with C. tyrobutyricum cell-free extract; format: biochemical; details: 0.5 to 10 mM compound; rate of ferrocenium reduction at 300 nm
Method: Lehman, et al., in An Acyl-Coenzyme A Dehydrogenase Assay Utilizing the Ferricenium Ion, Analytical Biochemistry 186, pages 280-284 (1990), disclose an in vitro assay screening technique for acyl-CoA dehydrogenases for determining enzyme deficiencies in children. An adaptation of this technique was explored as a potential screening method for ascertaining potential butyrogen inhibitors. An aqueous assay liquor is prepared such that each 1 milliliter sample contains 50 mM of TrisHCl buffer (pH 7.6); 0.05 mM of butyryl-CoA; 5 micromoles of FAD (flavin adenine dinucleotide) and 0.4 mM of ferrocenium. Whole cells of C. tyrobutyricum are lysed and are added to the assay liquor. […] The abbreviation mM stands for millimolar. To assure metabolic consistency among the samples a master batch of C. tyrobutyricum is prepared and harvested at the early log growth stage (approximate O.D. of between about 0.5 and 0.7). The master batch fermentation broth is centrifuged and rinsed with 50 mM TrisHCl buffer (pH 7.6), centrifuged and reconstituted with 50 mM TrisHCl buffer (pH 7.6) to be 10 times more concentrated than the original master batch. Aliquots of about 0.5 milliliter are placed into cryogenic vials (about 1.8 milliliter capacity) and frozen at −80° C. until needed. When needed, a vial is placed in an anoxic Coy chamber and allowed to thaw to room temperature. Once thawed, the cells are added to a 15 mL centrifuge tube and diluted with 0.5 mL of a 2 mg/mL solution of lysozyme (purchased from Aldrich) in 50 mM Tris-HCl (final concentration of lysozyme is about 1 mg/mL). The centrifuge tube is inverted 5 times, removed from the Coy chamber and allowed to incubate at 37° C. for 30 minutes. […] The centrifuge tube is vortexed in the Coy chamber for about 30 seconds, removed from the chamber and centrifuged for 15 minutes at 4000 rpm and 4° C. The tube is returned to the chamber and the cell-free extract (supernatant) is used to prepare the above described samples. The samples are analyzed at various times by absorbance spectroscopy at 300 nm using a Thermo Scientific Evolution 300 UV/Vis spectrophotometer with a 7-cuvette carousel and Starna quartz cuvettes with a septum cap to determine the amount of reduction of ferrocenium. The sample is at laboratory temperature and is maintained under anaerobic conditions. Typically, the absorbance is measured over a period of about 10 to 20 minutes which is sufficient time for the absorbance to stop changing. A linear slope of the rate of change in absorbance during the period that the absorbance is changing is determined using Microsoft Excel® 2010 linear regression to generate a straight line from the data points. The more gradual the slope, the better inhibition because the enzyme is slower at reducing the ferrocenium in the assay sample. A dose-response curve is then determined for each compound by plotting the linear slope against the respective compound concentration. A linear slope is then determined for each compound using Microsoft Excel® 2010 linear regression to generate a straight line from the data points. The steeper the dose-response slope, the better the inhibition because the increased concentration of the compound causes more of a difference in enzyme activity. The dose-response slope generally has a broad standard of deviation due to experimental imprecision and slope determinations.

C. autoethanogenum [3] = assay: Toxicity to C. autoethanogenum by batch fermentation using syngas substrate, optical density; format: cell-based, Clostridium autoethanogenum; details: for O.D. Response of Various Inhibitors on C. autoethanogenum: Table 21, one value per compound; for O.D. Response to Various Inhibitors: duplicates A and B, amount not given
Method: In this example various crotonate-like compounds on are evaluated for toxicity to C. autoethanogenum by batch fermentation using syngas substrate. The batch fermentations are conducted by anoxically filling 100 mL serum bottles with 10 mL of media having the composition given in Tables 12 and 13. Duplicate runs are conducted for each concentration. The compounds are: • C-1 Ethyl 4,4,4-trifluoro-3-(trifluoromethyl)crotonate • C-4 4,4,4-Trifluorocrotonamide • C-9 Ethyl 4,4,4-Trifluoro-3-(amino)crotonate • C-18 3 trifluoromethyl-4-methoxybenzoate.
Each bottle is inoculated with 1.0 mL of seed culture inoculum from an active fermenter using syngas substrate and containing Clostridium autoethanogenum, which inoculum has an OD of about 4.92 (which upon a 10 times dilution provides a starting OD for the fermentation of about 0.49). The bottles are gased with syngas to about 100 kilopascals and maintained at a temperature of 37° C. The bottles are regassed with syngas every 8 to 12 hours. The syngas has the approximate composition set forth in Examples 6 to 10. Twenty four hours after inoculation of the bottles with the bacteria, the compounds are added to different bottles as a solution in 50 μL of N-methylpyrrolidone in the amounts indicated in Tables 20 and 21. The fermentation process is allowed to progress at 37° C. At selected intervals of time, bacterial growth is measured by reading the OD of the fermentation liquid using a Thermo Spectronic Genesys 20 spectrophotometer. Optical density is measured by anoxically removing an aliquot of fermentation liquid and adding it to a disposable cuvette. OD's ranging between 0.01 and 0.4 are measured using fermentation liquid directly, while OD's greater than 0.4 are measure after performing a 1/10 dilution with water.

[4] = 0 Hours, added 24 h after inoculation
[5] = 2.5 Hours, added 24 h after inoculation
[6] = 6.5 Hours, added 24 h after inoculation
[7] = 24.5 Hours, added 24 h after inoculation

C/C=C/C(=O)OC(C)(C)C [C, Tert-butyl crotonate, reference compound]
Optical density valuation of C. autoethanogenum (C. autoethanogenum [1]; 10 ppm(m)): + (bacterial growth to an OD of approximately 2 or above) | Optical density valuation of C. autoethanogenum (C. autoethanogenum [1]; 100 ppm(m)): + (bacterial growth to an OD of approximately 2 or above) | Optical density valuation of C. autoethanogenum (C. autoethanogenum [1]; 500 ppm(m)): + (bacterial growth to an OD of approximately 2 or above) | Optical density valuation of C. autoethanogenum (C. autoethanogenum [1]; 1000 ppm(m)): + (bacterial growth to an OD of approximately 2 or above) | Optical density valuation of C. autoethanogenum (C. autoethanogenum [1]; 5000 ppm(m)): + (bacterial growth to an OD of approximately 2 or above) | Optical density valuation of C. autoethanogenum (C. autoethanogenum [1]; 10000 ppm(m)): − (failure of bacterial growth to reach an optical density of approximately 0.5) | Optical density valuation of C. tyrobutyricum ([2]; 100 ppm(m)): + (bacterial growth to an OD of approximately 1.8 or above) | Optical density valuation of C. tyrobutyricum ([2]; 500 ppm(m)): + (bacterial growth to an OD of approximately 1.8 or above) | Optical density valuation of C. tyrobutyricum ([2]; 1000 ppm(m)): + (bacterial growth to an OD of approximately 1.8 or above) | Dose-Response Slope (acyl-CoA dehydrogenases): 6

O=C(O)c1cccc(C(F)(F)F)c1 [3-(Trifluoromethyl)benzoate]
Dose-Response Slope (acyl-CoA dehydrogenases): 6

COc1ccc(C(N)=O)cc1C(F)(F)F [3-Trifluoromethyl-4-methoxybenzamide]
Dose-Response Slope (acyl-CoA dehydrogenases): 12

NC(=O)/C=C/C(F)(F)F [Compound C-4, 4,4,4-Trifluorocrotonamide]
Dose-Response Slope (acyl-CoA dehydrogenases): 8 | O.D. Response of Various Inhibitors on C. autoethanogenum (C. autoethanogenum [3]; [4]): 0.49 | O.D. Response of Various Inhibitors on C. autoethanogenum (C. autoethanogenum [3]; [5]): 0.41 | O.D. Response of Various Inhibitors on C. autoethanogenum (C. autoethanogenum [3]; [6]): 0.42 | O.D. Response of Various Inhibitors on C. autoethanogenum (C. autoethanogenum [3]; [7]): 1.06 | O.D. Response of Various Inhibitors on C. autoethanogenum (C. autoethanogenum [3]; 30.5 Hours): 1.32 | O.D. Response of Various Inhibitors on C. autoethanogenum (C. autoethanogenum [3]; 47.5 Hours): 1.67 | O.D. Response of Various Inhibitors on C. autoethanogenum (C. autoethanogenum [3]; 56 Hours): 1.72 | O.D. Response to Various Inhibitors (C. autoethanogenum [3]; [4]): 0.49 | O.D. Response to Various Inhibitors (C. autoethanogenum [3]; [5]): 0.40 and 0.42 | O.D. Response to Various Inhibitors (C. autoethanogenum [3]; [6]): 0.4 and 0.43 | O.D. Response to Various Inhibitors (C. autoethanogenum [3]; [7]): 1.03 and 1.09 | O.D. Response to Various Inhibitors (C. autoethanogenum [3]; 30.5 Hours, added 24 h after inoculation): 1.31 and 1.33 | O.D. Response to Various Inhibitors (C. autoethanogenum [3]; 47.5 Hours, added 24 h after inoculation): 1.7 and 1.64

CCOC(=O)c1ccccc1C(F)(F)F [Ethyl 2-(trifluoromethyl)benzoate]
Dose-Response Slope (acyl-CoA dehydrogenases): 8

CCOC(=O)/C(C)=C/C(F)(F)F [F, ethyl-2-methyl-4,4,4-trifluorocrotonate, reference compound]
Optical density valuation of C. autoethanogenum (C. autoethanogenum [1]; 10 ppm(m)): + (bacterial growth to an OD of approximately 2 or above) | Optical density valuation of C. autoethanogenum (C. autoethanogenum [1]; 100 ppm(m)): + (bacterial growth to an OD of approximately 2 or above) | Optical density valuation of C. autoethanogenum (C. autoethanogenum [1]; 500 ppm(m)): + (bacterial growth to an OD of approximately 2 or above) | Optical density valuation of C. autoethanogenum (C. autoethanogenum [1]; 1000 ppm(m)): + (bacterial growth to an OD of approximately 2 or above) | Optical density valuation of C. autoethanogenum (C. autoethanogenum [1]; 5000 ppm(m)): +/− (to an optical density in a range of 0.5 to 1.5) | Optical density valuation of C. autoethanogenum (C. autoethanogenum [1]; 10000 ppm(m)): − (failure of bacterial growth to reach an optical density of approximately 0.5) | Optical density valuation of C. tyrobutyricum ([2]; 100 ppm(m)): + (bacterial growth to an OD of approximately 1.8 or above) | Optical density valuation of C. tyrobutyricum ([2]; 500 ppm(m)): + (bacterial growth to an OD of approximately 1.8 or above) | Optical density valuation of C. tyrobutyricum ([2]; 1000 ppm(m)): + (bacterial growth to an OD of approximately 1.8 or above) | Dose-Response Slope (acyl-CoA dehydrogenases): 2

NC(=O)c1ccc(F)c(C(F)(F)F)c1 [3-Trifluoromethyl-4-fluorobenzamide]
Dose-Response Slope (acyl-CoA dehydrogenases): 5
